Consider 5 molecules from ChEMBL document CHEMBL4118167, “Discovery of bicyclo[3,3,1]non-2-ene as a novel skeleton for HIF-1 inhibitors” (Bioorg Med Chem, 2018).

Common to all, as to format: cell-based
The subject of one data set is HeLa. Nature of the data set: Cytotoxicity against human HeLa cells at 0.3 to 100 uM.
The target in data set [1] is T1, HIF1A/p300/CREB-binding protein (Homo sapiens, UniProt Q09472+Q16665+Q92793). Nature of the data set: Inhibition of HIF-1alpha/p300/CBP (unknown origin) transcriptional activity expressed in human HeLa cells expressing HRE-Luc/CMV-Luc after 12 hrs under hypoxic condition by dual luciferase reporter gene assay. For orientation: Reporter assays use an easily measured gene product as a stand-in for the process of interest.

Data set [2] addresses T1, HIF1A/p300/CREB-binding protein. Put plainly: Inhibition of HIF-1alpha/p300/CBP PPI in human HeLa cells assessed as […] of HIF-1alpha accumulation at 3 to 30 uM after 12 hrs under hypoxic condition by Western blot analysis.
For data set [3] the target is unchanged. Nature of the data set: Inhibition of HIF-1alpha/p300/CBP PPI in human HeLa cells assessed as reduction in HIF-1alpha proteasomal degradation after 12 hrs under hypoxic condition in presence of proteasome inhibitor MG132 by Western blot analysis. (Immunoblotting shows a protein as a band on a membrane.)
For data set [4] the target is unchanged. Nature of the data set: Inhibition of HIF-1alpha/p300/CBP PPI in human HeLa cells assessed as HIF-1alpha mRNA levels by measuring HIF-1alpha to beta2-microglobulin ratio at 30 uM after 12 hrs under hypoxic condition by qPCR analysis (reference value: 0.90 +/- 0.23).

SMILES strings stand for the structures. Calls of active or inactive are those of the source. The calls are words filed in the database; no cut-off is given here. Where only a bound is given, the exact number is not on record here.

Usually IC50 stands for the concentration needed to halve the response being measured.

With `CC(C)CCOC(=O)C1=C(OC(=O)CC(C)C)CC2(OC(=O)CC(C)C)CCCC1C2` (configuration not stated), the Activity entry in the data set on HeLa is “Non-Toxic”. In data set [1], this molecule yielded an IC50 of 6.3 µM.
Turning to `CC(C)CCOC(=O)C1=C(O)CC2(O)CCCC1C2` (configuration not stated), in the data set on HeLa, the Activity entry is “Non-Toxic”. The molecule also returned an IC50 in data set [1] of over 100 µM.
`OCc1ccc(-c2nn(Cc3ccccc3)c3ccccc23)o1`: in the data set on HeLa, the Activity entry is listed as “Non-Toxic”.
Consider `CC(C)CC(=O)OC1=C(C(=O)OCc2ccccc2)C2CCCC(OC(=O)CC(C)C)(C1)C2` (configuration not stated), for which the inhibition result in data set [2] is “inactive”. The Activity entry in the data set on HeLa was “Non-Toxic”. This molecule also displayed an IC50 in data set [1] of 3 µM. For the same molecule, in data set [3], the inhibition result is “Dose-dependent effect”. For the same molecule, the Ratio in data set [4] came to 1.2.
On to `O=C(OCc1ccccc1)C1=C(O)CC2(O)CCCC1C2` (configuration not stated), for which the Activity entry in the data set with HeLa is given as “Non-Toxic”. Besides, the concentration for half-maximal inhibition (IC50) in data set [1] is over 100 µM.
